Laboratory results as given in patent US20190070174A1, “METHODS OF TREATING NEURODEGENERATIVE DISEASES” (priority 2016, published 2019).

Legend:
[1] = tested on: ATXN3Q81.Luc fusion protein; experiment: Confirmation dose-response, ATXN3 levels by immunoblotting; type: cell-based, human; details: 293.ATXN3Q81Luc cells
Source text: Full-length ATXN3 (Accession number ABS29269) carrying either a normal or an expanded polyQ tract (Q26 or Q81) was subcloned in the vector pcDNA3.1 FLAG.firefly Luciferase. The mammalian expression plasmids pcDNA.FLAG.ATXN3Q26.Luc and pcDNA.FLAG.ATXN3Q81.Luc were confirmed by sequencing and shown to express N-terminal FLAG-tagged ATXN3Q26 or ATXN3Q81 fused with firefly Luciferase (Luc), respectively. These neomycin-resistant plasmids were transfected into HEK293 cells using Lipofectamine LTX (Invitrogen) during four hours, after which medium was replaced by growth medium (DMEM/10% fetal bovine serum (FBS)/1% penicillin/streptomycin (PS)). […] After one month of passage in selection medium, stably transfected clones for each cell line (293.ATXN3Q26Luc and 293.ATXN3Q81Luc) were pooled and frozen in liquid nitrogen. Stably transfected cell lines were maintained in selection medium except during treatment with specific compounds that were diluted in growth medium.
Protein lysates from cell cultures, mouse brain slices or mouse brains were obtained by lysis in RIPA buffer containing protease inhibitors (Complete, Roche Diagnostics), followed by sonication and centrifugation. The supernatants (soluble protein fractions) were collected, total protein concentration was determined using the BCA method (Pierce) and then stored at −80° C. Total proteins (50 μg from cell and slice cultures or 75 μg from brain regions of mice) were resolved in 10% SDS-PAGE gels, and corresponding PVDF membranes were incubated overnight at 4° C. with primary antibodies: mouse anti-ATXN3 (1H9) (1:2000; MAB5360, Millipore), goat anti-Luciferase (1:500; G7451, Promega), mouse anti-FLAG (M5) (1:500; IB13091, Sigma), rabbit anti-LC3 (1:500; PM036, MBL International Corporation), mouse anti-HSP90β (1:1000; ADI-SPA842, Enzo Life Sciences), rabbit anti-HSP90α (1:1000; ab2928, Abcam), mouse anti-HSP70 (1:500; SPA810, Enzo Life Sciences), rabbit anti-HSP40 (1:1000; #4868, Cell Signaling), rabbit anti-HSP25 (1:1000; ADI-SPA801, Enzo Life Sciences), rabbit anti-HSF1 (1:1000, ADI-SPA-901, Enzo Life Sciences), rabbit anti-ubiquitin (1:1000, Z 0458, Dako), rabbit anti-RAD23A (1:5000; TA307264, Origene), rabbit anti-RAD23B (1:2000; A302-306A, Bethyl Labs), rabbit anti-α-Tubulin (11H10) (1:10000; #2125, Cell Signaling), and mouse anti-GAPDH (1:1000; MAB374, Millipore). Pellets corresponding to insoluble protein fractions were resuspended in 100 μL of Laemmli buffer 2× and boiled for 10 min. Insoluble proteins were then quantified, and 100 μg were loaded in a filter trap assay apparatus and transferred to a nitrocellulose membrane (0.45 μm pore) that was incubated overnight with rabbit anti-MJD antibody (1:5000) at 4° C. Bound primary antibodies were visualized by incubation with a peroxidase-conjugated anti-mouse or anti-rabbit secondary antibody (1:10000; Jackson Immuno Research Laboratories) followed by treatment with the ECL-plus reagent (Western Lighting, PerkinElmer) and exposure to autoradiography films. Band intensity was quantified by densitometry using ImageJ.

human mutant ATXN3Q84 = type: cell-based; details: sagittal brain slices treated for 48 hours, cerebellum and brainstem
Description: (§1) Nine slices per brain were used in each set of cultures. […] After 48 hours of incubation at 37° C./5% CO2, brain slices were assessed for ATXN3 levels by immunoblotting or immunofluorescence and for cell viability. For immunoblotting, each slice was macrodissected into separate cerebellum and brainstem that were immediately frozen at −80° C. in 80 μL and 150 μL of cold RIPA buffer containing protease inhibitors (Complete, Roche Diagnostics), respectively. Cell viability was assessed on treated slices by incubation in propidium iodide (PI) 1 μg/mL in culture medium for 1 hour. Slices were then mounted in PROLONG Gold Antifade Reagent (Invitrogen) and imaged using a FV500 Olympus confocal microscope.
Protein lysates from cell cultures, mouse brain slices or mouse brains were obtained by lysis in RIPA buffer containing protease inhibitors (Complete, Roche Diagnostics), followed by sonication and centrifugation. The supernatants (soluble protein fractions) were collected, total protein concentration was determined using the BCA method (Pierce) and then stored at −80° C. […] Pellets corresponding to insoluble protein fractions were resuspended in 100 μL of Laemmli buffer 2× and boiled for 10 min. Insoluble proteins were then quantified, and 100 μg were loaded in a filter trap assay apparatus and transferred to a nitrocellulose membrane (0.45 μm pore) that was incubated overnight with rabbit anti-MJD antibody (1:5000) at 4° C. Bound primary antibodies were visualized by incubation with a peroxidase-conjugated anti-mouse or anti-rabbit secondary antibody (1:10000; Jackson Immuno Research Laboratories) followed by treatment with the ECL-plus reagent (Western Lighting, PerkinElmer) and exposure to autoradiography films. Band intensity was quantified by densitometry using ImageJ.
To assess the efficacy of the five compounds to reduce ATXN3 levels in the mammalian brain, secondary screens in organotypic brain slice cultures derived from hemizygous YACMJD84.2 (Q84) transgenic mice were performed.

mouse Atxn3 = experiment: Organotypic brain slice cultures from YACMJD84.2 (Q84) mice, immunoblotting; type: cell-based; details: sagittal brain slices treated for 48 hours, cerebellum and brainstem
Description: as §1
Protein lysates from cell cultures, mouse brain slices or mouse brains were obtained by lysis in RIPA buffer containing protease inhibitors (Complete, Roche Diagnostics), followed by sonication and centrifugation. The supernatants (soluble protein fractions) were collected, total protein concentration was determined using the BCA method (Pierce) and then stored at −80° C. […] Insoluble proteins were then quantified, and 100 μg were loaded in a filter trap assay apparatus and transferred to a nitrocellulose membrane (0.45 μm pore) that was incubated overnight with rabbit anti-MJD antibody (1:5000) at 4° C. […] Band intensity was quantified by densitometry using ImageJ. […]

SMILES | levels of ATXN3Q81.Luc fusion protein [1] | levels of human mutant ATXN3Q84 (human mutant ATXN3Q84) | levels of mouse Atxn3 (mouse Atxn3)
Cc1c(C(=O)NN2CCCCC2)nn(-c2ccc(Cl)cc2Cl)c1-c1ccc(I)cc1 [AM251] | confirmed to decrease levels of ATXN3Q81.Luc fusion protein | – | –
CC#C[C@]1(O)CC[C@H]2[C@@H]3CCC4=CC(=O)CCC4=C3[C@@H](c3ccc(N(C)C)cc3)C[C@@]21C [mifepristone] | confirmed to decrease levels of ATXN3Q81.Luc fusion protein | did not alter ATXN3 levels | –
Clc1ccccc1C(c1ccccc1)(c1ccccc1)n1ccnc1 [clotrimazole] | confirmed to decrease levels of ATXN3Q81.Luc fusion protein | did not alter ATXN3 levels | –
CC[C@@H](C(=O)[C@@H](C)[C@@H](O)[C@H](C)[C@@H]1O[C@@H]([C@@H](CC)C(=O)O)CC[C@@H]1C)[C@H]1O[C@]2(C=C[C@@H](O)[C@]3(CC[C@@](C)([C@H]4CC[C@](O)(CC)[C@H](C)O4)O3)O2)[C@H](C)C[C@@H]1C [salinomycin sodium] | confirmed to decrease levels of ATXN3Q81.Luc fusion protein | reduced levels | reduced levels
